From patent publication US6986997B1, “Method for screening using an OAT1 transporter protein” (Fuji Bio Medix Co., Ltd., priority 1997, dated 2006)
Like-named read-outs stand apart in the source and are kept apart here.

Tests used:
[1] = molecular target: T1, rat OAT1 (Rattus norvegicus, UniProt O35956); assay: Uptake of radio labeled substances into oocytes expressing OAT1; format: cell-based
T1 construct: with full-length OAT1 cDNA labeled with; expressed in transfected cells; host or cells: Xenopus laevis oocytes injected with in vitro transcribed cRNA
T1 sequence (O35956 1-551): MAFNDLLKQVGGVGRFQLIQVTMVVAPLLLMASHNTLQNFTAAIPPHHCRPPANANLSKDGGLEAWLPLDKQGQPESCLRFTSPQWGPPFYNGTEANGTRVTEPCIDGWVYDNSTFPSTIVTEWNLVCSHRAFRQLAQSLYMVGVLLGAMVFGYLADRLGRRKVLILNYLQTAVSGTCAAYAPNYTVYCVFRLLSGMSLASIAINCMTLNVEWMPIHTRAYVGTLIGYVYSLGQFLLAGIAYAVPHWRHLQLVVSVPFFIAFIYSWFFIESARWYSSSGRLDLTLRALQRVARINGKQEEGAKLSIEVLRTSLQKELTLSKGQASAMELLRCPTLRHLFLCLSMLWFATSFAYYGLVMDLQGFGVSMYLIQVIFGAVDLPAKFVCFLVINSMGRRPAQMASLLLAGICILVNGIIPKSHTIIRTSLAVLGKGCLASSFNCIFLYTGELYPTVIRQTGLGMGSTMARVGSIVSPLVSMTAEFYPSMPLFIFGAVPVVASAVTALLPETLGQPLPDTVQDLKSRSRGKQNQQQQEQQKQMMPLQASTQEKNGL
Source text: Several radio labeled compounds were examined whether they are taken up into oocytes via OAT1.
Control oocytes were those which were not injected with cRNA.

[2] = molecular target: T1, rat OAT1; assay: Cis-inhibition of 14C-PAH uptake in oocytes injected with rat OAT1 cRNA; format: cell-based; details: 2 μM 14C-PAH, 2 mM non-labeled substance, ND96 solution; for inhibition at 1 h, 2 mM: rat, oocytes injected with rat OAT1 cRNA, probe 14C-PAH (p-aminohippurate), read-out: inhibition of OAT1-mediated 14C-PAH uptake
[3] = system: basolateral organic anion transport system; details: Ullrich and Rumrich, Am. J. Physiol. 254, F453-462, 1988; read-out: Km value previously reported for the basolateral organic anion transport system; cited from earlier work
[4] = versus control oocytes not injected with cRNA

Row | transport of radio labeled substance into oocytes expressing OAT1 [1, 4] | inhibition at 1 h, 2 mM [2] [%] | cis-inhibitory effect on OAT1-mediated 14C-PAH uptake (in words) [2] | Structure (SMILES) | also measured
1 |  | > 85 |  | CCCC(CCC)C(=O)O [valproic acid] | 
2 |  | > 85 |  | CCn1cc(C(=O)O)c(=O)c2ccc(C)nc21 [nalidixic acid] | 
3 | transported |  | inhibited | O=c1[nH]c(=O)c2[nH]c(=O)[nH]c2[nH]1 [uric acid] | 
4 |  | > 85 |  | C=C(CC)C(=O)c1ccc(OCC(=O)O)c(Cl)c1Cl [ethacrynic acid] | 
5 | transported |  | inhibited | Nc1nc2c(ncn2[C@@H]2O[C@@H]3COP(=O)(O)O[C@H]3[C@H]2O)c(=O)[nH]1 [cyclic-GMP] | 

Second part, the compound before the results:

Row | Structure (SMILES) | transport of radio labeled substance into oocytes expressing OAT1 [1, 4] | inhibition at 1 h, 2 mM [2] [%] | cis-inhibitory effect on OAT1-mediated 14C-PAH uptake (in words) [2] | also measured
6 | CC[N+](CC)(CC)CC [^14C-TEA, tetraethylammonium, reference compound] | not detected |  |  | 
7 | Nc1ccc(C(=O)NCC(=O)O)cc1 [PAH, para-aminohippurate] |  |  |  | Km [3]: 80 µM
8 | COc1ccc2c(c1)c(CC(=O)O)c(C)n2C(=O)c1ccc(Cl)cc1 [indomethacin] |  | > 85 |  | 
9 | C[C@H](CCC(=O)NCCS(=O)(=O)O)[C@H]1CC[C@H]2[C@@H]3[C@H](O)C[C@@H]4C[C@H](O)CC[C@]4(C)[C@H]3C[C@H](O)[C@]12C [^3H-taurocholic acid, taurocholic acid] |  |  |  | transport of radio labeled substance into oocytes expressing OAT1 [1]: not detected
10 | Nc1ncnc2c1ncn2[C@@H]1O[C@@H]2COP(=O)(O)O[C@H]2[C@H]1O [cyclic-AMP] |  |  | inhibited | transport of radio labeled substance into oocytes expressing OAT1 [1]: transported
